Reference: patent US8815953B2, “Formulations of vitamin K analogs for topical use” (Spectrum Pharmaceuticals, Inc., priority 2008, dated 2014)

Legend:
[1] = Menadione compatibility with single solvent systems (1% w/w solutions, 1 month storage); type: physicochemical
Protocol: Based on the single solvent solubility data, a menadione compatibility study with selected solvents was conducted. Solutions containing 1% w/w of menadione were prepared, packaged in borosilicate clear glass vials, wrapped in aluminum foil and stored at 5° C. (dark), 25° C. (dark), and 40° C. (dark) for a period of 1 month. The physico-chemical properties of the 1% menadione single solvent solutions are presented in: Table 2.

[2] = Estimated solubility of menadione in single solvents; type: physicochemical
Protocol: This study focused on evaluating the solubility properties of menadione in hydrophilic and lipophilic excipients used in topical pharmaceutical products. Initially, solubility studies were conducted in single solvents.

[3] = system: EGFR and other growth factor-related phosphatase; settings: cited from earlier work
[4] = In vitro percutaneous absorption of (14C)-Menadione Study #2, abraded skin; type: in vitro ADME, human; settings: abraded skin versus normal skin
Protocol: Percutaneous absorption of (^14C)-Menadione was also evaluated using abraded human skin in the lead formulation at 0.05, 0.1, and 0.2% Menadione and the backup formulation at 0.2% Menadione. Abraded skin was evaluated as a possible simulation of the type of broken and/or compromised skin that may be present in the case of a skin rash caused by an EGFR inhibitor. The respective skin permeation values are presented in: Table 18.

EGFR-mediated signaling = settings: topical application, secondary to systemic erlotinib and cetuximab; cited from earlier work

CC1=CC(=O)c2ccccc2C1=O [Menadione, 2-methyl-1,4-naphthoquinone]
Compatibility of menadione with solvent (physical appearance and potency by HPLC) ([1]; caprylic/capric triglyceride, diethyl sebacate, diisopropyl adipate, isopropyl myristate, 1 month at 5, 25, 40° C. dark): compatible | Compatibility of menadione with solvent (discoloration) ([1]; dimethyl isosorbide, transcutol and polyethylene glycol 400, all conditions evaluated): signs of incompatibility | Estimated Solubility ([2]; in Benzyl Alcohol): Greater than 10% w/w | Estimated Solubility ([2]; in Dimethyl Isosorbide): Greater than 10% w/w | Estimated Solubility ([2]; in Mineral Oil): Less than 0.1% w/w | Estimated Solubility ([2]; in Polyethylene Glycol 400): Greater than 2% w/w | Estimated Solubility ([2]; in Propylene Glycol): Less than 1% w/w | Estimated Solubility ([2]; in Purified Water): Less than 0.04% w/w | EGF activating activity [3]: direct EGF activating activity | EGFR and other growth factor-related phosphatase inhibitory activity [3]: inhibitory activity | Epidermal levels of the drug [4]: lower | EGFR-mediated signaling in human skin (EGFR-mediated signaling): restore EGFR-mediated signaling
